# Results as given in patent US20230364104A1, “PHARMACEUTICAL COMBINATION FOR THE TREATMENT OF HUMAN HYPOCHOLINERGIC DISORDERS” (priority 2020, published 2023).
# Like-named read-outs stand apart in the source and are kept apart here.
# How the values were obtained:
# [1] = tested on: myocardial tissue; details: acetylcholine 1 μM, cited from earlier work
# [2] = oral pirenzepine 100-300 mg co-administered with donepezil, healthy volunteers
# [3] = in vivo; cited from earlier work
SMILES,suppression of the effect of acetylcholine ([1]; antagonist 1 μM),also measured
"CN1CCN(CC(=O)N2c3ccccc3C(=O)Nc3cccnc32)CC1 [pirenzepine, 11-[(4-methylpiperazin-1-yl)acetyl]-5,11-dihydro-6H-pyrido[2,3-b][1,4]benzodiazepin-6-one]",did not suppress the effect of acetylcholine,increase in the tolerated dose of donepezil [2]: enabling the safe increase in the dose of donepezil
"C[N+]1(C)CCC(OC(=O)C(c2ccccc2)c2ccccc2)CC1.[I-] [4DAMP, 4-[(Diphenylacetyl)oxy]-1,1-dimethylpiperidin-1-ium iodide]",,suppression of the effect of acetylcholine ([1]; antagonist 0.1 μM): did not suppress the effect of acetylcholine
CN1[C@@H]2CC[C@H]1C[C@@H](OC(=O)C(CO)c1ccccc1)C2 (stereo partly drawn) [atropine],completely abolished the effect of acetylcholine,
"CCN(CC)CCCCC1CCN(CC(=O)N2c3ccccc3C(=O)Nc3cccnc32)CC1 [AQ-RA 741, 11-[[4-[4-(diethylamino)butyl]-1-piperidinyl]acetyl]-5,11-dihydro-6H-pyrido[2,3-b] [1,4]benzodiazepin-6-one]",partial suppression of the effect of acetylcholine,
O=C(O[C@H]1CN2CCC1CC2)N1CCc2ccccc2[C@@H]1c1ccccc1 [solifenacin],,effect on QTc [3]: increase in QTc
